The source of these data is publication PMC6337497 (International Journal of Molecular Sciences, 2018).

For data set [1], the system named is PC3 cells. As to the kind of experiment: K3F21/docetaxel co-administration, MTT and CompuSyn, PC3. In kind it is cell-based, Human. The following applies: PC3, K3F21/DTX combinations. As to the method: The inhibition of cell proliferation was measured by colorimetric MTT assay and the concentration at which cellular growth is inhibited by 50% (GI50) was determined. Briefly, cells were seeded into 96-well plates at a density of 2000 cells/well. The following day, cells were treated with the indicated compounds and analyzed for cell viability after 48 h. 5 mg/mL thiazolyl blue tetrazolium bromide (Sigma-Aldrich, St. Louis, MO, USA) was added to each well at a final concentration of 0.5 mg/mL and the plates were incubated at 37 °C for 2 h. Medium containing unconverted MTT was removed and 100 µL MTT solvent (4 mM HCl, 0.1% NP-40 in isopropyl alcohol) was added to each well. The plate was gently rotated on an orbital shaker in the dark for 15 min, before the measurements of absorbance at 570 nm. The viability of untreated cells was arbitrarily set at 100%.
The ability of K3F21 and docetaxel to act synergistically with regard to growth inhibition was determined using CompuSyn software (ComboSyn, Inc., freely available at http://www.combosyn.com). Combination index (CI) and drug reduction index (DRI) were calculated for each concentration of drugs mixture, as indicated in the text. CI <1, =1 or >1 indicates synergism, additive effect, or antagonism, respectively. DRI >1 or <1 indicates favorable or not favorable dose-reduction.

Data set [2] has as its system DU145 cells. Nature of the data set: Anchorage-dependent colony formation assay, DU145. In kind it is cell-based, Human. As to conditions: DU145, 10 days, different doses. As to the method:
(§1) For anchorage-dependent colony formation assay, 1000 PC3 or 500 DU145 cells were plated in 6-well plates. […] After 7–10 days, the plates were washed, fixed and stained with 0.5% crystal violet solution in 20% Methanol. […] Colony numbers were normalized as a percentage of colonies formed following DMSO treatment.

Data set [3] deals with DU145 cells. As to the kind of experiment: Anchorage-independent colony formation assay, DU145. In kind it is cell-based, Human. As to conditions: DU145, 10 µM. The method, then: (§2) For anchorage-independent colony formation assay, 0.6% low melt agarose gel with 10% FBS in appropriate complete cell growth medium was prepared and added to the wells of a twelve-well culture dish as a base agar. […] PC3 and DU145 cells were allowed to grow at 37 °C for three weeks (PC3) or five weeks (DU145). The effect of the drugs on anchorage-independent growth was determined by colony growth. Colonies were stained with 0.07% crystal violet and formed colonies were imaged. The numbers of colonies with radius ≥ 7 pixels were counted with automated colony counter (OpenCFU 3.9.0) and average number of colonies was plotted against drug concentrations. Colony numbers were normalized as a percentage of colonies formed following DMSO treatment.

Data set [4] can be described thus: Lipophilicity (data not shown). In kind it is physicochemical.
In data set [5] the test system is PC3 cells. As to the kind of experiment: Anchorage-independent colony formation assay, PC3. In kind it is cell-based, Human. As to conditions: PC3, 5 µM. As to the method: as §2
Data set [6] relates to PC3 cells. Nature of the data set: Anchorage-dependent colony formation assay, PC3. In kind it is cell-based, Human. The method, then:
as §1

Data set [7] can be described thus: pH-metric titration, acid-base behavior (UV-vis, HypSpec). The following applies: pH 7. In kind it is physicochemical. As to the method:
pH-metric titrations were performed in order to assess K3F acidity and predict the most abundant species in physiological condition. […] Overall protonation constants (βHL) were calculated from spectrophotometric data and optimized by means of HypSpec software (Supplementary Table S1). K3F23, K3F24 and K3F33 behaved as weak monoprotic acids, with a pKa value close to 8–8.50 associated to the keto-enol moiety. As for the other two ligands, namely K3F21 and K3F31, the acid-base equilibria were more complex in view of the polyprotic nature of the compounds, and three logβLH values were calculated. Species distribution curves (Supplementary Figure S2) provided reliable prediction of neutral and charged forms as function of pH, and consequently helped to envisage cell penetration and distribution in physiological conditions. […] As for K3F21 and K3F31, they behaved as less weak acids, in fact at pH 7 58% of K3F21 and 65% of K3F31 were found in the mono-dissociated negatively charged form (H2L^−), these percentages increased up to 74% and 86% respectively at pH 7.4. […] This outcome could be attributed to the stabilizing effect of the intramolecular hydrogen bond between the methoxyl and hydroxyl groups on the aromatic ring in the indissociated form of K3F21, which shifts the equilibrium in favor of the neutral species (H3L).
UV-vis spectrophotometric measurements were performed using Jasco V-570 spectrophotometer at 25.0 ± 0.1 °C in the 200–600 nm spectral range employing 1 cm quartz cells. Owing to the poor water solubility of the compounds, a methanol mother solution (5 × 10^−3 M) was diluted in water in order to give 50 µM solutions used for pH-metric titrations. The pH value was varied by adding small amounts of concentrated NaOH or HCl, 25 points in the pH range 3–10. A constant ionic strength of 0.1 M (NaNO3) was maintained in all the experiments. Each titration was performed at least three times. The overall protonation constants (logβLH) were evaluated from spectrophotometric data using the software HypSpec.

Data set [8] has as its system PC3 cells. Nature of the data set: Cell migration (wound) assay, PC3. In kind it is cell-based, Human. The following applies: PC3, GI50 dose, 40 h. As to the method:
4 × 10^5 prostate cancer cells were plated in a 12-well plate. Approximately 24 h later, when the cells were 100% confluent, the monolayer was scratched using a 200 µL pipette tip. […] Three biological replicates were performed. Three random pictures were taken for each treated well per experiment and the areas of the wounds measured using ImageJ software. The percentage of wound recovery was then calculated using the formula: (final area-initial area)/initial area × 100%.

SMILES strings stand for the structures.

Regarding `COc1cc(/C=C/C(=O)C(CCCN2C(=O)c3ccccc3C2=O)C(=O)/C=C/c2ccc(O)c(OC)c2)ccc1O` [K3F21], the “cell growth of co-administration compared to single administration” value in data set [1] is reported as “none of the evaluated K3F21/DTX combinations affected cell growth”. Besides, the anchorage-dependent colony growth entry in data set [2] is listed as “clearly inhibited cell growth when administered at lower concentrations than curcumin”; in data set [6] (PC3, 7 days, different doses) it was “clearly inhibited cell growth when administered at lower concentrations than curcumin”. Further, the “decrease in colony formation, anchorage-independent” value in data set [3] and in data set [5] was “up to 95%” throughout. In data set [4], the lipophilicity result was “high”. Moreover, the anchorage-dependent colony formation entry in data set [6] (PC3, 5 µM) is on record as “quite completely abolished”. Also, in data set [7], the “mono-dissociated negatively charged form (H2L−)” value worked out at 58%. For the same compound, the “cell migration (wound recovery)” value in data set [8] is given as “exerted inhibitory effects on the migratory capacity”.
